Experimental data reported in patent publication US20090099062A1 (priority 2007, published 2009).

Columns and labels:
Format in all cases: cell-based
[1] = system: Wnt-mediated gene transcription; experiment: Topflash reporter assay in HEK 293 cells; conditions: Homo sapiens, HEK293; HEK 293 cells stimulated with Wnt3a, Topflash luciferase; read-out: EC50, inhibition of Wnt-mediated transcription
Procedure: Topflash reporter assay. HEK 293 cells stably expressing 8× Supertopflash were seeded in quadruplicate at 15,000 cells/well/100 μl of medium in 96 well-plate. […] Cells were lysed in passive lysis buffer (Promega), and luciferase was measured according to Promega's Steady-Glo protocol.

[2] = system: SW620; experiment: Cell viability (CellTiter-Glo), SW620; conditions: Homo sapiens, SW-620; SW620, 48 hr
Procedure: (§1) Cancer cell growth, viability, and apoptosis assays. HCT116, SW620, SW480, MDA-MB-231 cancer lines were maintained according to ATCC guidelines. For cell growth and viability assays, cells were seeded at 2000 cells/100 μl/well in 96-well plates. Cell number was measured at different time points using CellTiter-Glo® Luminescent Cell Viability Assay (Promega). For apoptosis assays, cells were seeded at 5000 cells/100 μl/well in 96-well plates. Drug was added for 24 hr and Caspase-3 and -7 activities were measured using Apo-ONE® Homogeneous Caspase-3/7 Assay (Promega).

[3] = system: SW480; experiment: Cell viability (CellTiter-Glo), SW480; conditions: Homo sapiens; SW480, 48 hr
Procedure: as §1

[4] = system: MDA-MB-231; experiment: Cell viability (CellTiter-Glo), MDA-MB-231; conditions: Homo sapiens; MDA-MB-231, 48 hr
Procedure: as §1

Measured: EC50

Cc1cc(/C=C/c2ccc3cc(N(C)C)ccc3[n+]2C)c(C)n1-c1ccccc1 [pyrvinium, pyrvinium pamoate]
< 50 nM: all assays above
